In brackets after ≈: the same amount, converted by molar mass. Activity calls are given as the source filed them. The calls are words filed in the database; no cut-off is given here.
Tests used:
Candida tropicalis [1] = assay: Inhibition of chitin synthase extracted from Candida tropicalis ATCC 750 using UDP-GlcNAc as substrate assessed as inhibition rate at 300 ug/ml by TMB based microplate analyzer relative to control; details: dose 300.0 µg/ml
[2] = Inhibition of chitin synthase extracted from Candida tropicalis ATCC 750 using UDP-GlcNAc as substrate assessed as inhibition rate by TMB based microplate analyzer relative to control
Candida tropicalis [3] = assay: Non-competitive inhibition of chitin synthase extracted from Candida tropicalis ATCC 750 using UDP-GlcNAc as substrate assessed as decrease in Vm with constant Km at 0 to 0.15 mM by Lineweaver-Burk plot analysis; details: dose 0-0.15 mM
[4] = Non-competitive inhibition of chitin synthase extracted from Candida tropicalis ATCC 750 using UDP-GlcNAc as substrate assessed as inhibition constant by Lineweaver-Burk plot analysis
Candida albicans [5] = assay: Antifungal activity against Candida albicans ATCC 76615 assessed as inhibition of growth incubated for 24 hrs by two-fold serial dilution method; format: functional
Aspergillus flavus [6] = assay: Antifungal activity against Aspergillus flavus ATCC 16870 assessed as inhibition of growth incubated for 24 hrs by two-fold serial dilution method; format: functional
Aspergillus fumigatus [7] = assay: Antifungal activity against Aspergillus fumigatus GIMCC 3.19 assessed as inhibition of growth incubated for 24 hrs by two-fold serial dilution method; format: functional
Cryptococcus neoformans [8] = assay: Antifungal activity against Cryptococcus neoformans ATCC 32719 assessed as inhibition of growth incubated for 24 hrs by two-fold serial dilution method; format: functional
Candida albicans [9] = assay: Antifungal activity against drug-resistant Candida albicans ATCC 76615 assessed as inhibition of cell wall synthesis in presence of sorbitol incubated for 24 hrs; format: functional
Aspergillus flavus [10] = assay: Antifungal activity against drug-resistant Aspergillus flavus ATCC 16870 assessed as inhibition of cell wall synthesis in presence of sorbitol incubated for 24 hrs; format: functional
Aspergillus fumigatus [11] = assay: Antifungal activity against drug-resistant Aspergillus fumigatus GIMCC 3.19 assessed as inhibition of cell wall synthesis in presence of sorbitol incubated for 24 hrs; format: functional
Cryptococcus neoformans [12] = assay: Antifungal activity against drug-resistant Cryptococcus neoformans ATCC 32719 assessed as inhibition of cell wall synthesis in presence of sorbitol incubated for 24 hrs; format: functional
Candida albicans [13] = assay: Antifungal activity against fluconazole-resistant Candida albicans ATCC 76615 assessed as inhibition of fungal growth incubated for 24 to 72 hrs; format: functional; details: time 24-72 hrs
Aspergillus flavus [14] = assay: Antifungal activity against fluconazole-resistant Aspergillus flavus ATCC 16870 assessed as inhibition of fungal growth incubated for 24 to 72 hrs; format: functional; details: time 24-72 hrs
Aspergillus fumigatus [15] = assay: Antifungal activity against fluconazole-resistant Aspergillus fumigatus GIMCC 3.19 assessed as inhibition of fungal growth incubated for 24 to 72 hrs; format: functional; details: time 24-72 hrs
Cryptococcus neoformans [16] = assay: Antifungal activity against fluconazole-resistant Cryptococcus neoformans ATCC 32719 assessed as inhibition of fungal growth incubated for 24 to 72 hrs; format: functional; details: time 24-72 hrs
Candida albicans [17] = assay: Antifungal activity against micafungin-resistant Candida albicans ATCC 76615 assessed as inhibition of fungal growth incubated for 24 to 72 hrs; format: functional; details: time 24-72 hrs
Candida albicans [18] = assay: Antifungal activity against Candida albicans ATCC 76615 incubated for 24 hrs by half broth dilution based checkerboard method; format: functional
Aspergillus flavus [19] = assay: Antifungal activity against Aspergillus flavus ATCC 16870 incubated for 24 hrs by half broth dilution based checkerboard method; format: functional
Aspergillus fumigatus [20] = assay: Antifungal activity against Aspergillus fumigatus GIMCC 3.19 incubated for 24 hrs by half broth dilution based checkerboard method; format: functional
Cryptococcus neoformans [21] = assay: Antifungal activity against Cryptococcus neoformans ATCC 32719 incubated for 24 hrs by half broth dilution based checkerboard method; format: functional
Candida albicans [22] = assay: Antifungal activity against Candida albicans ATCC 76615 assessed as fluconazole MIC incubated for 24 hrs in presence of fluconazole by half broth dilution based checkerboard method; format: functional
Aspergillus flavus [23] = assay: Antifungal activity against Aspergillus flavus ATCC 16870 assessed as fluconazole MIC incubated for 24 hrs in presence of fluconazole by half broth dilution based checkerboard method; format: functional
Aspergillus fumigatus [24] = assay: Antifungal activity against Aspergillus fumigatus GIMCC 3.19 assessed as fluconazole MIC incubated for 24 hrs in presence of fluconazole by half broth dilution based checkerboard method; format: functional
Cryptococcus neoformans [25] = assay: Antifungal activity against Cryptococcus neoformans ATCC 32719 assessed as fluconazole MIC incubated for 24 hrs in presence of fluconazole by half broth dilution based checkerboard method; format: functional
Aspergillus fumigatus [26] = assay: Synergistic antifungal activity against Aspergillus fumigatus GIMCC 3.19 assessed as fractional inhibitory concentration index in presence of fluconazole incubated for 24 hrs by half broth dilution based checkerboard method; format: functional
Candida albicans [27] = assay: Synergistic antifungal activity against Candida albicans ATCC 76615 assessed as fractional inhibitory concentration index in presence of fluconazole incubated for 24 hrs by half broth dilution based checkerboard method; format: functional
Aspergillus flavus [28] = assay: Synergistic antifungal activity against Aspergillus flavus ATCC 16870 assessed as fractional inhibitory concentration index in presence of fluconazole incubated for 24 hrs by half broth dilution based checkerboard method; format: functional
A549 [29] = assay: Cytotoxicity against human A549 cells assessed as reduction in cell viability at 4 microg/ml incubated for 24 hrs by CCK-8 assay relative to control; format: toxicity, cell-based; details: a549, 24 h, at 4 µg/mL
A549 [30] = assay: Cytotoxicity against human A549 cells assessed as reduction in cell viability at 8 microg/ml incubated for 24 hrs by CCK-8 assay relative to control; format: toxicity, cell-based; details: a549, 24 h, at 8 µg/mL
A549 [31] = assay: Cytotoxicity against human A549 cells assessed as reduction in cell viability at 16 microg/ml incubated for 24 hrs by CCK-8 assay relative to control; format: toxicity, cell-based; details: a549, 24 h, at 16 µg/mL
A549 [32] = assay: Cytotoxicity against human A549 cells assessed as reduction in cell viability at 32 microg/ml incubated for 24 hrs by CCK-8 assay relative to control; format: toxicity, cell-based; details: a549, 24 h, at 32 µg/mL
A549 [33] = assay: Cytotoxicity against human A549 cells assessed as reduction in cell viability at 64 microg/ml incubated for 24 hrs by CCK-8 assay relative to control; format: toxicity, cell-based; details: a549, 24 h, at 64 µg/mL
A549 [34] = assay: Cytotoxicity against human A549 cells assessed as reduction in cell viability at 128 microg/ml incubated for 24 hrs by CCK-8 assay relative to control; format: toxicity, cell-based; details: a549, 24 h, at 128 µg/mL
Cryptococcus neoformans [35] = assay: Synergistic antifungal activity against Cryptococcus neoformans ATCC 32719 assessed as fractional inhibitory concentration index in presence of fluconazole incubated for 24 hrs by half broth dilution based checkerboard method; format: functional
Candida albicans [36] = assay: Antifungal activity against Candida albicans ATCC 76615 assessed as Polyoxin B MIC incubated for 24 hrs in presence of fluconazole by half broth dilution based checkerboard method; format: functional
Aspergillus flavus [37] = assay: Antifungal activity against Aspergillus flavus ATCC 16870 assessed as Polyoxin B MIC incubated for 24 hrs in presence of fluconazole by half broth dilution based checkerboard method; format: functional
Aspergillus fumigatus [38] = assay: Antifungal activity against Aspergillus fumigatus GIMCC 3.19 assessed as Polyoxin B MIC incubated for 24 hrs in presence of fluconazole by half broth dilution based checkerboard method; format: functional
Cryptococcus neoformans [39] = assay: Antifungal activity against Cryptococcus neoformans ATCC 32719 assessed as Polyoxin B MIC incubated for 24 hrs in presence of fluconazole by half broth dilution based checkerboard method; format: functional
Candida albicans [40] = assay: Synergistic antifungal activity against Candida albicans ATCC 76615 assessed as fractional inhibitory concentration index in presence of Polyoxin B incubated for 24 hrs by half broth dilution based checkerboard method; format: functional
Aspergillus flavus [41] = assay: Synergistic antifungal activity against Aspergillus flavus ATCC 16870 assessed as fractional inhibitory concentration index in presence of Polyoxin B incubated for 24 hrs by half broth dilution based checkerboard method; format: functional
Aspergillus fumigatus [42] = assay: Synergistic antifungal activity against Aspergillus fumigatus GIMCC 3.19 assessed as fractional inhibitory concentration index in presence of Polyoxin B incubated for 24 hrs by half broth dilution based checkerboard method; format: functional
Cryptococcus neoformans [43] = assay: Synergistic antifungal activity against Cryptococcus neoformans ATCC 32719 assessed as fractional inhibitory concentration index in presence of Polyoxin B incubated for 24 hrs by half broth dilution based checkerboard method; format: functional

O=C(/C=C/C(=O)Nc1nc2ccccc2s1)Nc1ccc2c(c1)NC(=O)C1(CCNC1=O)C2 (racemic)
inhibition (Candida tropicalis [1]): 82.5%
IC50 [2]: 104 µM
inhibition (Candida tropicalis [3]): Active
Ki [4]: 114 µM
MIC (Candida albicans [5]): 8 µg/mL (≈ 17.3 µM)
MIC (Aspergillus flavus [6]): 16 µg/mL (≈ 34.7 µM)
MIC (Aspergillus fumigatus [7]): 4 µg/mL (≈ 8.67 µM)
MIC (Cryptococcus neoformans [8]): 4 µg/mL (≈ 8.67 µM)
MIC (Candida albicans [9]): 128 µg/mL
MIC (Aspergillus flavus [10]): 128 µg/mL
MIC (Aspergillus fumigatus [11]): 64 µg/mL
MIC (Cryptococcus neoformans [12]): 64 µg/mL
MIC (Candida albicans [13]): 64 µg/mL (≈ 139 µM)
MIC (Aspergillus flavus [14]): 32 µg/mL (≈ 69.3 µM)
MIC (Aspergillus fumigatus [15]): 32 µg/mL (≈ 69.3 µM)
MIC (Cryptococcus neoformans [16]): 64 µg/mL (≈ 139 µM)
MIC (Candida albicans [17]): 64 µg/mL (≈ 139 µM)
MIC (Candida albicans [18]): 2 µg/mL
MIC (Aspergillus flavus [19]): 4 µg/mL
MIC (Aspergillus fumigatus [20]): 2 µg/mL
MIC (Cryptococcus neoformans [21]): 2 µg/mL
MIC (Candida albicans [22]): 2 µg/mL
MIC (Aspergillus flavus [23]): 2 µg/mL
MIC (Aspergillus fumigatus [24]): 4 µg/mL
MIC (Cryptococcus neoformans [25]): 4 µg/mL
fractional inhibitory concentration index (FICI) (Aspergillus fumigatus [26]): 1.5
fractional inhibitory concentration index (FICI) (Candida albicans [27]): 0.5
fractional inhibitory concentration index (FICI) (Aspergillus flavus [28]): 0.75
Activity (A549 [29]): 93.5%
Activity (A549 [30]): 90.5%
Activity (A549 [31]): 91.1%
Activity (A549 [32]): 87.9%
Activity (A549 [33]): 79.1%
Activity (A549 [34]): 68.4%
fractional inhibitory concentration index (FICI) (Cryptococcus neoformans [35]): 1
MIC (Candida albicans [36]): 2 µg/mL
MIC (Aspergillus flavus [37]): 8 µg/mL
MIC (Aspergillus fumigatus [38]): 2 µg/mL
MIC (Cryptococcus neoformans [39]): 4 µg/mL
fractional inhibitory concentration index (FICI) (Candida albicans [40]): 0.5
fractional inhibitory concentration index (FICI) (Aspergillus flavus [41]): 0.75
fractional inhibitory concentration index (FICI) (Aspergillus fumigatus [42]): 1.5
fractional inhibitory concentration index (FICI) (Cryptococcus neoformans [43]): 1

— ChEMBL document CHEMBL6127079, “Design and synthesis of spiro[pyrrolidine-3,3'-quinoline]-2,2'-dione derivatives as novel antifungal agents targeting chitin synthase” (Eur J Med Chem, 2024)
